In experiment [1] the test system is ruminal microorganisms. The experiment in a line: dual-flow continuous culture fermenters simulating rumen fermentation (Example 2). As to conditions: NPN 0.51 wt. % urea or 0.55 wt. % UB of diet DM. In kind it is cell-based, Holstein dairy cows. The protocol: In this example, an in vitro assay was performed using dual-flow continuous culture fermenters, aiming to simulate rumen fermentation.
Eight 1320 ml dual-flow continuous culture fermenters were used in two replicated periods. Each period consisted out of 5 days for adaptation of the ruminal fluid to the treatments and 3 days for sampling. On the first day of each period, all fermenters were inoculated with undiluted ruminal fluid filtered through two layers of cheesecloth to remove the feed particles. The fermentation conditions were constant, i.e. • a temperature of 39° C., • a pH of 6.4±0.05 by infusion of 3 N HCl or 5 N NaOH, • anaerobiosis with continued infusion of N2 gas at a rate of 40 ml/min, and • continued infusion of artificial saliva to obtain liquid and solid dilution rates of 10%/h and 5%/h, respectively.
The fermenters were fed 95 grams/day of dry matter of a diet formulated to meet or exceed current nutrients recommendations for lactating dairy cows, i.e. • 166 g/kg crude protein (CP), • 323 g/kg neutral detergent fiber (NDF), and • 201 g/kg acid detergent fiber (ADF),
And were fed in three daily administrations, i.e. at 7, 15 and 23 o'clock with a forage: concentrate diet in a range of 53:47.
Ruminal fluid was taken from two Holstein dairy cows fitted with ruminal cannulas fed with a 60:40 forage:concentrate diet with alfalfa and cracked grain (11 kg dry matter/cow/day). The afternoon before the ruminal extraction, the ruminant animals were not fed.
The NPN-dietary treatments were as follows: • Control: basal diet to which 0.51 wt. % urea was added, with wt. % on dry matter basis, • Diet: basal diet to which 0.55 wt. % of the mixture according to the present disclosure, with composition as in example 1, was added, with wt. % on dry matter basis.
On the second day of sampling, 4 ml of filtered fermenter fluid was taken 2 hours after the morning feeding to determine VFA-concentrations.
During sampling days, the collection vessels were maintained at 4° C. to prevent microbial activity. Solid and liquid effluents from 3 sampling days were composited and mixed within the fermenter and homogenized. Subsamples were taken for the analyses of the volatile fatty acids (VFA). The remainder of the sample was lyophilized (freeze drying) and the dry samples were analyzed for DM, ash, N and purines to calculate bacterial nitrogen and organic matter content (OM).
Bacterial cells were obtained from the fermenter flasks the last day of each experimental period. Solid and liquid associated bacteria were isolated using a combination several detachment procedures selected to obtain the maximum detachment without affecting the cell integrity. The bacterial cells were lyophilized and the dry samples were analyzed for dry matter (DM), ash, N and purines to calculate bacterial nitrogen.
Effluent dry matter (DM) was determined by lyophilizing 300 ml aliquots in triplicate. The DM content of the diets and bacterial samples were determined by drying samples for 24 hours in an 103° C. forced air oven (see AOAC, 1990; method 950.01).
Dry samples of diets, effluents and bacteria were ashed overnight at 550° C. in a muffle furnace (see AOAC, 1990, method 976.05) and organic matter (OM) was determined by difference. Total N of diets, effluents and bacterial samples were determined by a Kjeldhal method (AOAC, 1990; method 976.05). Sample crude protein (CP) was calculated as N×6.25. Effluent CP was determined in liquid samples. Crude protein degradation was calculated as the difference between CP in the diet minus CP in the effluent and expressed as wt. % of DM. The EMPS was determined by dividing bacterial N by fermented organic matter.
The fiber components of the diets and the effluents were analyzed sequentially using a thermostable alpha-amylase and sodium sulfite and expressed without residual ash.
The samples for the VFA-analysis were prepared as described by Jouany, J. P., and J. Senaud. […]

In experiment [2] the test system is ruminal fluid. Nature of the experiment: in vitro methane production, batch culture (Example 4). In kind it is cell-based, Angus crossbred steers. Conditions: corn silage-based diet, 24 hours incubation. The protocol: The amount of methane produced was determined by measuring total gas production and the contribution of methane to it. The production of gas was recorded using an Ankom Gas Monitoring System from Ankom Technologies. This system was adapted to 500 ml bottles during the entire fermentation process. The kinetics of the production was fitted to a Gompertz model to determine the rate of the total maximal gas production (M), fractional rate of gas produced (kf) and lag phase (L). A gas subsample was analyzed to measure methane concentration and calculate the total methane production during the fermentation. The concentration of methane was determined using a gas chromatograph Agilent 7820 GC from Agilent Technologies with flame ionization and a capillary column (Plot Fused Silica 25 m×0.32 mm, coating Molsieve 5A, Varian CP 7536 from Varian Inc.).

Experiment [3] relates to beef steers. Nature of the experiment: enteric methane emission, SF6 tracer technique (Example 3). In kind it is in vivo, crossbred yearling steers. The protocol:
Methane emission was measured in all steers for five consecutive days using the SF6 tracer technique (Johnson et al., 1994; Henry et al., 2020). In this technique, the steers received a calibrated permeation tube filled with SF6 (3.1 g+0.2 g) before the measurement period. The average SF6 release rate was […]+1.1 mg/d. After five days of training, a vacuum gas collector canister was attached to each animal to collect a sample of daily gas production. Each day at the same hour, a new vacuum canister was replaced throughout the five days of the measurement period. Five collection canisters were used to determine environmental CH4 and SF6 concentrations. A gas sample was taken from each canister and conserved in 120 ml bottles for posterior analysis of CH4 and SF6 using gas chromatography. For the current experiment, only steers with a least three successful days of collection and measurement were considered in the final analysis. Gas samples were analyzed by gas chromatography (Agilent 7820A GC, Agilent Technologies, Palo Alto, CA). A flame ionization and electron capture detector were used for CH4 and SF6 analysis, respectively, with a capillary column (Plot Fused Silica 25 m×0.32 mm, Coating Molsieve 5A, Varian CP7536, Varian Inc., Lake Forest, CA). The injector, column and detector temperatures for CH4 analysis were 80, 160 and 200° C., respectively. For SF6, temperatures were 50, 30 and 300° C. for the injector, the column and the detector, respectively. The carrier gas for CH4 and SF6 was N2. The emissions of CH4 were calculated according to the next equation:
[formula] • QCH4=CH4 emissions per animal (g/day) • QSF6=SF6 release rate (mg/day) • [CH4]γ=the concentration of CH4 in the animals' collection canister • [CH4]β=the concentration of CH4 in the environmental collection canister • [SF6]γ=the concentration of SF6 in the animals' collection canister • [SF6]β=the concentration of SF6 in the environmental collection canister

Where [4] appears, read: five consecutive days, SF6 tracer.

The values that follow come from patent US20250161245A1, “A MIXTURE OF UREA, BIURET AND N-CONTAINING BY-PRODUCTS CREATED DURING BIURET PRODUCTION AS A DIETARY NON-PROTEIN NITROGEN-SOURCE FOR RUMINANTS AND USES THEREOF” (Yara International ASA, priority 2022, published 2025).

As to `NC(N)=O` [Urea, urea], in experiment [1], the “Acetate to propionate ratio” value is recorded as 3.5, the CP degradation is given as 47.7 % of dry matter, the EMPS is 35.7 g bacterial N/kg of fermented organic matter and the “True digestibility DM” value is 53.53 wt. % of DM. Besides, in experiment [1], the “True digestibility OM” value is reported as 52.95 wt. % of DM, the “VFA Acetate” value was 62.92 and the “VFA Propionate” value is listed as 18.18. Further, in experiment [2], the “methane production per g organic matter digested” value is 6.86 mM/g OMd and the “methane production per g organic matter incubated” value came to 1.23 mM/g OMi. The DM intake in experiment [3] (Table 7 (methane measurement)) is reported as 6.08 kg/day. Also, in experiment [3] (setting [4]), the “Methane emission (g/kg ADG)” value is listed as 213.79 g/kg ADG, the “Methane emission (g/kg DMI)” value was 36.59 g/kg DMI and the “Methane emission (g/kg OMI)” value is listed as 38.68 g/kg OMI.
